Test results published in patent US20230355763A1, “NANOPARTICLE VACCINES AND USES THEREOF FOR PROPHYLAXIS AND TREATMENT OF ATHEROSCLEROSIS USING PEPTIDE 210 AS AN ANTIGEN” (CEDARS-SINAI MEDICAL CENTER, priority 2022, published 2023).

What was measured:
[1] = target: T1, HLA-A*02:01 (Homo sapiens, UniProt P04439, D140Y/D185E/D98H/E176V/E277Q/G131W/G231S/I119V/I121R/I166T/I218V/L300P/L318F/N151K/N90K/P208A/P217A/Q86G/Q94H/R138H/R169H/T345S); test: REVEAL binding assay of 9-mer P210 peptides; conditions: for binding to HLA-A*02:01 (REVEAL binding score), in words: tested by ProImmune
T1 construct: purchased ProImmune (contracted REVEAL assay service)
Description: The human Class-I HLA that occurs with the highest frequency in North America is HLA-A*02:01; and P210 epitope binding to HLA-A*02:01 was tested by ProImmune using the REVEAL assay. The REVEAL assay used 9-mer sequential peptides of P210 to assess binding to HLA-A*02:01 (Table 2): a plurality of 9-amino acid fragments, each identical to residues 1-9, 2-10, 3-11, 4-12, 5-13, 6-14, 7-15, 8-16, 9-17, 10-18, 11-19, or 12-20 of P210. […] ApOBKTTKQSFDL (SEQ ID NO:2) pentamer was able to detect a small but significant population of P210-specific CD8+ T cells in PBMCs from healthy HLA-A*02:01(+) volunteers (FIG. 7B-7E).
(§1) Proimmune was contracted to screen for potential binding epitopes in P210 to HLA-A*02:01. […] For pentamer staining, commercially available HLA-A*02:01 typed cryo-preserved PBMCs (Immunospot) were thawed, rinsed in anti-aggregation solution (Immunospot) and divided into 2×10^6 cell aliquots. ApOBKTTKQSFDL (SEQ ID NO:2) pentamer staining was performed according to manufacturer's instruction, with the HLA-A*02:01 Negative Pentamer (ProImmune) as negative control. Each sample stained for ApOBKTTKQSFDL (SEQ ID NO:2) pentamer had its corresponding negative control stain. Cells were washed and then stained for CD8 (LT8) andddCD19 (HIB19). Cells were again washed after staining and resuspended in 1% paraformaldehyde in 1% BSA/0.1% sodium azide and analyzed. ApOBKTTKQSFDL (SEQ ID NO:2) pentamer positive cells for each sample were determined based on the corresponding Negative Pentamer.

[2] = test system: human PBMCs; test: Activation Induced Marker (AIM) assay in human PBMC; format: cell-based
Description: Cryo-preserved PBMCs were thawed, rinsed in anti-aggregation solution (Immunospot), and seeded in culture plates at a density of 3×10^6 cells per ml of RPMI 1640 medium supplemented with 10% heat-inactivated pooled human serum and 1× antibiotic/antimycotic. After resting for 4 hours, cells were preincubated with 0.5 mg/ml anti-CD40 antibody for 15 minutes then stimulated with 20 μg/ml P210 peptide, 0.5× T cell stimulation cocktail containing PMA and ionomycin (Thermo Fisher), or CMV (pp65) Peptide Pool (StemCell Tech) as a non-relevant antigen control, whereas cells without treatment served as non-stimulated control. Cells were harvested 16 hours after seeding, stained for viability (LIVE/DEAD Fixable Aqua Dead Stain Kit, Thermo Fisher), and subjected to cell surface staining for flow cytometry using the following antibodies: CD4, CD8, CD25, CD69, OX40 (CD134), CD137 (4-1 BB) and CD154 (CD40L). Isotypes were used as staining control and eFluor506 labelled CD14, CD16 and CD19 antibodies were used as dump staining to exclude B cells, dendritic cells, macrophages, granulocytes, eosinophil cells and neutrophil cells. The results are expressed as fold change (ratio between the signal in the antigen stimulated condition and the signal in the unstimulated condition) for each subject, consistent with the reported AIM assay.

[3] = test system: human PBMCs; test: Peptide stimulation of human PBMC (T effector / effector memory, Response Index); format: cell-based; conditions: 20 μg/ml P210, 72 h; ACS PBMCs compared to controls
Description: Cryo-preserved PBMCs were thawed, rinsed and cultured as in AIM assay but without resting. Cells were stimulated with 20 μg/ml P210 peptide or 0.5× T cell stimulation cocktail containing phorbol 12-myristate 13-acetate (PMA) and ionomycin (Thermo Fisher) with non-treated cells serving as negative control. Culture medium was added at ⅓ of the starting volume 48 hours later to replenish the nutrients in the medium. Cells were harvested 72 hours after seeding, stained for viability (LIVE/DEAD Fixable Aqua Dead Stain Kit, ThermoFisher), and subjected to cell surface staining for flow cytometry using the following antibodies: CD3, CD4, CD8, CD45RA, CD45RO, CD62L, and CD197 (CCR7). Isotypes were used as staining control. CD4^+ or CD8^+ T Effector cells were gated on CD45RO^+CD62L^−CD197^−. T Effector Memory cells were CD45RO^+CD45RA^−CD62L^−CD197^−.
Results were Tabulated as Response Index Using the Following Calculation:
(% peptide stimulation−% no stimulation)/(% cocktail stimulation)×100.
The results are expressed as Response Index to account for inherent variations introduced by culturing cells in vitro over time, controlled for by assessing response relative to baseline cell phenotype (% no stimulation) and maximal stimulation (% cocktail stimulation) for each subject PBMC. Each data point represents one subject.

[4] = test system: PBMCs from HLA-A*02:01(+) volunteers; test: ApoB KTTKQSFDL pentamer(+) CD8+ T cells in human PBMCs cultured with P210; format: cell-based; conditions: PBMCs cultured with 20 μg/ml P210 for 5 days
Description: as §1

[5] = test system: A2Kb Tg ApoE-/- mice; test: Functional expression of A2Kb transgene (A2V7 immunization); format: in vivo, mouse; conditions: male mice, 20 μg/100 μl s.c. in IFA; compared to IFA-injected mice, P<0.05
Description: Male A2Kb Tg ApoE^−/− mice were immunized with the HLA-A*02:01-restricted peptide A2V7 from human hepatitis C virus (HCV NS5a 1987-1995, VLSDFKTWL (SEQ ID NO:34); ProImmune) emulsified in incomplete Freund's adjuvant (IFA; MP Biomedicals) at 9 and 10 weeks of age by subcutaneous injection at a dose of 20 μg/100 μl. Mice immunized with 100 μl IFA alone served as control. Mice were euthanized at 11 weeks of age. HLA-A*02:01 restricted antigen specific immune response was evaluated by flow cytometric analysis of splenocytes stained with CD19 (6D5), CD8a (KT15), and PE-conjugated HLA-A*02:01/A2V7-pentamer (ProImmune).

[6] = 20 μg/ml P210, 16 h, ACS patients compared to control subjects

KTTKQSFDL (listed as Homo sapiens) [Peptide 1]
binding to HLA-A*02:01 (REVEAL binding score) ([1]; sequential 9-mer P210 peptides): KTTKQSFDL* | binding to HLA-A*02:01 (REVEAL binding score), in words ([1]; listed as First 9-mer sequence in P210): high binding score | binding to HLA-A*02:01 (REVEAL binding score), in words ([1]; listed as first 9-mer): scored well, comparable to the positive control

KTTKQSFDLSVKAQYKKNKH (listed as Homo sapiens) [Peptide P210, ApoB-100 derived peptide P210 (ApoB-100 3136-3155)]
CD8+CD69+CD134+ T cells after P210 stimulation [2, 6]: no such increase was observed | mean increase in CD4+CD69+CD134+ T cells after P210 stimulation [2, 6]: 1.5 fold | markers for other AIM(+) cells (CD25+CD134+, CD69+CD154+, CD134+CD137+) ([2]; after P210 stimulation, ACS vs controls): not different compared to Controls | CD4+ T effector cell response to P210 [3]: not significantly different | CD8+ T effector memory response to P210 [3]: significant increase | CD8+ T effector response to P210 [3]: significant increase | tested samples with an increase of pentamer specific CD8+ T cells [4]: 5 out of 8

VLSDFKTWL [Peptide A2V7, HLA-A*02:01-restricted peptide from human hepatitis C virus (HCV NS5a 1987-1995)]
A2V7-pentamer+ CD8+ T cells in the spleen [5]: significantly increased
